How the values were obtained:
mTOR = mTOR (Homo sapiens, UniProt P42345); settings: low concentration; cited from earlier work
PI3K/mTOR = settings: relatively higher concentrations; cited from earlier work
JNL cells = assay: Single vector CD19 RCAR constructs in JNL cells, NFAT reporter activation by dimerization molecule; assay type: cell-based; settings: nM to sub-nM doses
Text: The constructs and viral particles were made and tested essentially as described in Example 11. Viral particles were introduced into JNL cells and evaluated for activity essentially as described in Example 1 except that the target was CD19 (as opposed to EGFRviii).
Construct 143775 was introduced into cells and the affect of dimerization molecule concentration on activation evaluated essentially as described in Example 14.

[1] = test system: Jurkat cells with NFAT-LUC reporter (JNL); assay: Activation assay of redirected inhibitory RCAR (PD1 RCAR, FRB-FKBP switch) on PDL1-Fc; assay type: cell-based
Method: Jurkat cells with NFAT-LUC reporter (JNL) were grown to the density of 0.5×10^6/ml in Jurkat cell growth media with puromycin at 0.5 μg/ml. For each transfection 3×10^6 cells were spin down at 100 g for 10 minutes. Four μg DNA per construct were used per transfection. Amaxa Nucleofector solution V and supplement I was mixed and 100 μl was added into the tube with DNA construct. The mixture was then added to the cells and transferred to the electroporation cuvette. Electroporation was done under setting X-001 using Amaxa Nucleofector II Device. 0.5 ml of growth media was added immediately after electroporation and the mixture were transferred into 2 ml growth media in one well of the 6-well plate. After two hours, the rapalogue compound at various concentrations was added to cells. The cells were applied to tissue culture plate wells that were coated by the target. Tissue culture plate was coated with 5 μg/ml of PDL1-Fc or IgG1-Fc or any target for 2 hrs at 37° C., then blocked with the blocking buffer (DPBS with 5% serum) for 30 minutes. The transfected cells were added to the target plate with 100 μl per well and incubated further for 16 hrs. Luciferase One Glo reagent 100 μl was added per well. The samples were incubated for 5 min at 37° C. and then luminescence is measured using Envision plate reader. […]

[2] = target: biotinylated FKBP, FLAG FRB protein and everolimus; assay: AlphaLISA direct binding assay, FLAG FRB proteins with biotinylated FKBP and titrated everolimus; settings: everolimus serial diluted from 600 nM; 30 nM biotinylated FKBP and each FLAG FRB protein
Method: FRB mutations were also ranked in an alternative assay format. Briefly, FRB proteins incorporating single and double mutations (SEQ ID NO: 319-323) were produced as FLAG tagged constructs in E. coli as described previously. 30 nM (final) of biotinylated FKBP (SEQ ID NO: 324) and each FLAG FRB protein were combined in the presence of everolimus serial diluted 1:3 from a starting final concentration of 600 nM into a 96 well ½ surface flat-bottom plate (PerkinElmer) and incubated for one hour at room temperature. All dilutions were made in 1× AlphaLISA Immunoassay buffer (PerkinElmer). Anti-Flag acceptor beads (PerkinElmer) were added at 10ug/ml final concentration and incubated for one hour at room temperature. Streptavidin donor beads (PerkinElmer), were then added at a final concentration of 40ug/ml and the plate was protected from light and incubated for 30 minutes at room temperature. The plate was then read on the PerkinElmer EnVision Multiplate reader equipped with the Alpha Module using excitation of 680 nm and a 570 nm Emission filter.

[3] = test system: Jurkat cells with NFAT-LUC reporter (JNL); assay: NFAT activation assay, 9E10 anti-myc scFv RCAR with c-myc peptide multimers; assay type: cell-based; settings: myc tags at 100 nM, 18 hr; compared with lower multimers
Method: Jurkat cells with NFAT-LUC reporter (JNL) were grown to the density of 0.5×10^6/ml in Jurkat cell growth media with puromycin at 0.5 μg/ml. For each transfection 2.5×10^6 cells were spin down at 100 g for 10 minutes. Two μg of DNA per construct were used per transfection. Amaxa Nucleofector solution V and supplement I was mixed and 100 μl was added into the tube with DNA construct. The mixture was then added to the cells and transferred to the electroporation cuvette. Electroporation was done under setting X-001 using Amaxa Nucleofector II Device. 0.5 ml of growth media was added immediately after electroporation and the mixture were transferred into 2 ml growth media in one well of the 6-well plate and incubated for two hours. For myc tags in solution, the cells were distributed into 96-wells, monomer, dimer, trimer or tetramer myc tags or IgG1 Fc were applied at 100 nM. The cells were incubated for 18 hr. Alternatively, tissue culture plate was coated with 100 nM of various myc tags or IgG1 Fc for two hours, blocked with the blocking buffer (DPBS with 5% serum) for 1 hour. The transfected cells were added to the target plate with 100 μl per well and incubated for 18 hrs. Luciferase One Glo reagent 100 μl was added per well. The samples were incubated for 5 min at 37° C. and then luminescence is measured using Envision plate reader.

Question: With `Cn1c(=O)n(-c2ccc(C(C)(C)C#N)cc2)c2c3cc(-c4cnc5ccccc5c4)ccc3ncc21` [BEZ235, 2-methyl-2-[4-(3-methyl-2-oxo-8-quinolin-3-yl-2,3-dihydro-imidazo[4,5-c]quinolin-1-yl)-phenyl]-propionitrile] as the molecule, how does the “concentration at which mTOR inhibition predominates” value (mTOR) read?
Answer: Its value is “less than 100 nmol/L”.

Question: What about the “concentration of dual PI3K/mTOR inhibition” value (PI3K/mTOR) of the same molecule?
Answer: The value was “approximately 500 nmol/L”.

Question: With `CO[C@H]1C[C@@H]2CC[C@@H](C)[C@@](O)(O2)C(=O)C(=O)N2CCCC[C@H]2C(=O)O[C@H]([C@H](C)C[C@@H]2CC[C@@H](O)[C@H](OC)C2)CC(=O)[C@H](C)/C=C(\C)[C@@H](O)[C@@H](OC)C(=O)[C@H](C)C[C@H](C)/C=C/C=C/C=C/1C` [rapamycin] as the molecule, how does the “activation of RCAR (Construct 143775) over dimerization molecule concentration” value (JNL cells) read?
Answer: Its value is “effective at a broad range of concentrations”.

Question: Which results are given for `CO[C@H]1[C@@H](O)[C@H](C)C[C@H](C)/C=C/C=C/C=C(\C)[C@@H](c2c[nH]c3c(C)cccc23)C[C@@H]2CC[C@@H](C)[C@@](O)(O2)C(=O)C(=O)N2CCCC[C@H]2C(=O)O[C@H]([C@H](C)C[C@@H]2CC[C@@H](O)[C@H](OC)C2)C[C@H](O)[C@H](C)/C=C(\C)[C@H]1O` [AP21967]?
Answer: induction of NFAT signaling by PDL-1 target ([1]; PD1 RCAR (PD1-ECD-TM-FRB and FKBP-4 1BB-CD3 zeta), 500 nM AP21967): significant induction of signaling; potency in inducing dimerization of the heterodimerization switch, activation of NFAT signaling ([1]; PD1 RCAR, varying concentrations of AP21967, dose response): potent even at sub nM concentration

Question: With “E2032I: FRB point mutant; SEQ ID NO: 313 (competition assay), SEQ ID NO: 319 (direct binding assay)” as the molecule, how does the EC50 [2] read?
Answer: The EC50 was 2.46 nM.

Question: With “E2032L: FRB point mutant; SEQ ID NO: 314 (competition assay), SEQ ID NO: 320 (direct binding assay)” as the molecule, how does the EC50 [2] read?
Answer: The EC50 was 2.15 nM.

Question: For “Wild type FRB: His-FRB SEQ ID NO: 312 in competition assay; His-FLAG-FRB SEQ ID NO: 318 in direct binding assay”, which EC50 [2] is on record?
Answer: Its EC50 is 3.9 nM.

Question: For “T2098L: FRB point mutant; SEQ ID NO: 315 (competition assay), SEQ ID NO: 321 (direct binding assay)”, which EC50 [2] is on record?
Answer: Its EC50 is 1.44 nM.

B1: EEQKLISEEDLGGGGSGGGGSGGGGSEEQKLISEEDLGGGGSGGGGSGGGGSEEQKLISEEDL (peptide)
chain: EEQKLISEEDLGGGGSGGGGSGGGGSEEQKLISEEDLGGGGSGGGGSGGGGSEEQKLISEEDL
Question: Which “NFAT activation by myc tag multimers” value [3] does the source give for B1 here?
Answer: The value was “Higher NFAT activation”.

B2: EEQKLISEEDLGGGGSGGGGSGGGGSEEQKLISEEDLGGGGSGGGGSGGGGSEEQKLISEEDLGGGGSGGGGSGGGGSEEQKLISEEDL (peptide)
chain: EEQKLISEEDLGGGGSGGGGSGGGGSEEQKLISEEDLGGGGSGGGGSGGGGSEEQKLISEEDLGGGGSGGGGSGGGGSEEQKLISEEDL
Question: With B2 as the molecule, how does the “NFAT activation by myc tag multimers” value [3] read?
Answer: The value was “Higher NFAT activation”.

— US11578130B2, “Regulatable chimeric antigen receptor” (Novartis AG, priority 2013, dated 2023)
